According to the supplement of paper PMC8967900:

Experiments:
Assay in all cases: selective drug sensitivity score (sDSS, relative to normal bone marrow) (sDSS (score)); higher = more potent and effective on the cell line relative to normal bone marrow cells
Conditions in all cases: 72 h
SEM cells = test system: SEM cells
LC4-1 = test system: LC4-1
KASUMI-9 = test system: KASUMI-9
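Further: ALL cell lines in 384-well plates, five doses spanning 10,000-fold, each plate scaled between vehicle and 100 µmol/L benzalkonium chloride controls, sDSS an adapted area-under-curve metric.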

Compound	selective drug sensitivity score (SEM cells)	selective drug sensitivity score (LC4-1)	selective drug sensitivity score (KASUMI-9)
COC12C(COC(N)=O)C3=C(C(=O)C(C)=C(N)C3=O)N1CC1NC12 (stereo in doubt) [Mitomycin_C] (top concentration 10000 nM)	3.84	2.34	4.04
CC(C)(C)c1nc(-c2cccc(NS(=O)(=O)c3c(F)cccc3F)c2F)c(-c2ccnc(N)n2)s1 [Dabrafenib] (top concentration 2500 nM)	-1.52	6.48	3.58
CN1CCC(CNc2ccc3ncc(-c4cccc(OC(F)(F)F)c4)n3n2)CC1 [SGI-1776] (top concentration 10000 nM)	6.92	-1.08	-1.68
CC(C)[C@H](C(=O)Nc1ccc(C(=O)NO)cc1)c1ccccc1 [AR-42] (top concentration 10000 nM)	9.08	6.88	8.08
Nc1ccccc1NC(=O)c1ccc(CNC(=O)OCc2cccnc2)cc1 [Entinostat] (top concentration 10000 nM)	12.9	4.48	8.28
Cc1[nH]nc(C(F)(F)F)c1Cc1sc2c(c1C(=O)N1C[C@](C)(O)CO1)c(=O)n(C)c(=O)n2C(C)C [AZD3965] (top concentration 1000 nM)	0	1.5	2.7
CN(C)C1CCN(C(=O)c2ccc(NC(=O)Nc3ccc(-c4nc(N5CCOCC5)nc(N5CCOCC5)n4)cc3)cc2)CC1 [Gedatolisib] (top concentration 1000 nM)	1.16	3.06	9.36
CC(C)(C)Cn1c(N)nc2ccc(-c3[nH]c(C(C)(C)C)nc3-c3ccc(F)cc3)nc21 [Ralimetinib] (top concentration 10000 nM)	1.76	4.76	8.76
CC(C)[C@@H](CS(=O)(=O)C(C)C)N1C(=O)[C@@](C)(CC(=O)O)C[C@H](c2cccc(Cl)c2)[C@H]1c1ccc(Cl)cc1 [AMG-232] (top concentration 10000 nM)	-8.34	11.3	13.1
C[C@@H](Nc1cc(F)cc(F)c1)c1cc(C(=O)N(C)C)cc2c(=O)cc(N3CCOCC3)oc12 [AZD-8186] (top concentration 1000 nM)	2.44	-0.26	6.04
CCNC(=O)C[C@@H]1N=C(c2ccc(Cl)cc2)c2cc(OC)ccc2-n2c(C)nnc21 [Molibresib] (top concentration 10000 nM)	7.7	3.7	9.1
Nc1cc(C(F)(F)F)c(-c2cc(N3CCOCC3)nc(N3CCOCC3)n2)cn1 [Buparlisib] (top concentration 10000 nM)	7.08	6.08	6.58
C[C@@]1(C(=O)Nc2ccc(F)nc2)CCCN1c1nc(Nc2cc(C3CC3)n[nH]2)c2cccn2n1 (top concentration 10000 nM)	8.98	11.4	8.08
Cc1c(-c2c(-c3ccc(F)o3)sc3ncnc(O[C@H](Cc4ccccc4OCc4ccnn4CC(F)(F)F)C(=O)O)c23)ccc(OCCN2CCN(C)CC2)c1Cl (top concentration 1000 nM)	-6.44	-0.54	-1.84
Cn1cc(CNCC2CCN(c3ncc(C(=O)NO)cn3)CC2)c2ccccc21 [Quisinostat] (top concentration 1000 nM)	6.38	7.38	9.78
Nc1cc(F)ccc1NC(=O)c1ccc(CNC(=O)/C=C/c2cccnc2)cc1 [Tucidinostat] (top concentration 10000 nM)	10.3	3.94	7.24
O=C(O)c1ccc2c(c1)nc(Nc1cccc(Cl)c1)c1ccncc12 [Silmitasertib] (top concentration 10000 nM)	1.4	3.9	3.3
COc1c(C)cnc(Cn2cnc3c(Cl)nc(N)nc32)c1C [BIIB021] (top concentration 10000 nM)	7.38	0.98	-1.22
CC(C)[C@H]1C(=O)N[C@@H](CCCNC(=N)N)C(=O)NCC(=O)N[C@@H](CC(=O)O)C(=O)N[C@H](Cc2ccccc2)C(=O)N1C [Cilengitide] (top concentration 10000 nM)	0	0	0
Nc1ccccc1NC(=O)c1ccc(CNc2nccc(-c3cccnc3)n2)cc1 [Mocetinostat] (top concentration 10000 nM)	9.04	9.14	9.14

Compound	selective drug sensitivity score (SEM cells)	selective drug sensitivity score (LC4-1)	selective drug sensitivity score (KASUMI-9)
NC(=O)N1CCC(CC(=O)N2CCC([C@H]3c4ncc(Br)cc4CCc4cc(Cl)cc(Br)c43)CC2)CC1 [Lonafarnib] (top concentration 100000 nM)	14.1	3.44	9.14
CCN(CCO)CCCOc1ccc2c(Nc3cc(CC(=O)Nc4cccc(F)c4)[nH]n3)ncnc2c1 [AZD1152-HQPA] (top concentration 1000 nM)	15.7	23.2	17.1
COCC[n+]1c2c(n(Cc3cnccn3)c1C)C(=O)c1ccccc1C2=O [Sepantronium_bromide] (top concentration 10000 nM)	13.3	22.3	16.2
COc1cc(Nc2ncc(F)c(Nc3ccc4c(n3)NC(=O)C(C)(C)O4)n2)cc(OC)c1OC [Tamatinib] (top concentration 10000 nM)	12	1.28	2.68
O=C(Nc1cccc(NC(=O)c2cccc(O)c2O)c1)c1cccc(O)c1O [MST-312] (top concentration 10000 nM)	0.6	8.1	5
CCCCCCCCCCCCCCCCOP(=O)([O-])OCC[N+](C)(C)C [Miltefosine] (top concentration 100000 nM)	4.36	7.46	0.46
CO[C@@H]1[C@H](N(C)C(=O)c2ccccc2)C[C@H]2O[C@]1(C)n1c3ccccc3c3c4c(c5c6ccccc6n2c5c31)C(=O)NC4 [Midostaurin] (top concentration 10000 nM)	19.3	10.6	11.7
O=C(CCCCCCNC(=O)c1cnc(N(c2ccccc2)c2ccccc2)nc1)NO [Rocilinostat] (top concentration 10000 nM)	4.74	8.24	6.64
C[C@@H]1COCCN1c1cc(C2([S@](C)(=N)=O)CC2)nc(-c2cc[nH]c3nccc2-3)n1 [AZD6738] (top concentration 25000 nM)	17.2	8.48	8.38
CN(C(=O)c1ccc(F)cc1C(F)(F)F)C1CCN(c2nnc(-c3ccnn3C)c3ccccc23)CC1 [Taladegib] (top concentration 10000 nM)	-1.12	4.58	-1.12
COc1cccc2c1C(=O)c1c(O)c3c(c(O)c1C2=O)C[C@@](O)(/C(CO)=N/NC(=O)CCCCCN1C(=O)C=CC1=O)C[C@@H]3O[C@H]1C[C@H](N)[C@H](O)[C@H](C)O1 [Aldoxorubicin] (top concentration 1000 nM)	3.64	6.34	8.64
O=C(Nc1nc2cccc(-c3ccc(CN4CCS(=O)(=O)CC4)cc3)n2n1)C1CC1 [Filgotinib] (top concentration 10000 nM)	1.96	-1.94	0.26
C#Cc1cccc(Nc2ncnc3cc(OCCOC)c(OCCOC)cc23)c1 [Erlotinib] (top concentration 10000 nM)	1.86	8.66	3.26
NC1(C(=O)N[C@@H](CCO)c2ccc(Cl)cc2)CCN(c2ncnc3[nH]ccc23)CC1 [AZD-5363] (top concentration 10000 nM)	4.82	1.22	3.52
Cn1cnc2c(F)c(Nc3ccc(Br)cc3Cl)c(C(=O)NOCCO)cc21 [Selumetinib] (top concentration 10000 nM)	-0.3	0.7	2.2
CO[C@H]1C[C@@H]2CC[C@@H](C)[C@@](O)(O2)C(=O)C(=O)N2CCCC[C@H]2C(=O)O[C@H]([C@H](C)C[C@@H]2CC[C@@H](O)[C@H](OC)C2)CC(=O)[C@H](C)/C=C(\C)[C@@H](O)[C@@H](OC)C(=O)[C@H](C)C[C@H](C)/C=C/C=C/C=C/1C [Sirolimus] (top concentration 100 nM)	1.34	1.74	4.74
CCn1c(-c2nonc2N)nc2c(C#CC(C)(C)O)ncc(OC[C@H]3CCCNC3)c21 (top concentration 10000 nM)	5.28	1.08	0.98
NC(=O)/C(=C/n1cnc(-c2cc(C(F)(F)F)cc(C(F)(F)F)c2)n1)c1cncnc1 [Eltanexor] (top concentration 10000 nM)	3.96	8.16	11.1
Cc1nc(NC(=O)N2CCC[C@H]2C(N)=O)sc1-c1ccnc(C(C)(C)C(F)(F)F)c1 [Alpelisib] (top concentration 2500 nM)	-0.82	0.98	1.18
C[C@@H]1COC(Nc2ccc3ncnc(Nc4ccc(OCc5nccs5)c(Cl)c4)c3c2)=N1 [Varlitinib] (top concentration 10000 nM)	2.92	20.2	4.72
